{"source": "paper PMC11890623", "about": "“Pseudomonas aeruginosa acyl-CoA dehydrogenases and structure-guided inversion of their substrate specificity” (Nature Communications, 2025)", "key": {"FadE2": {"target": "T1, FadE2 (Pseudomonas aeruginosa, UniProt Q9I610)", "T1 construct": "gene PA0508; full-length ORF, His6 tag removed by TEV", "T1 sequence (Q9I610 entry or part of it)": "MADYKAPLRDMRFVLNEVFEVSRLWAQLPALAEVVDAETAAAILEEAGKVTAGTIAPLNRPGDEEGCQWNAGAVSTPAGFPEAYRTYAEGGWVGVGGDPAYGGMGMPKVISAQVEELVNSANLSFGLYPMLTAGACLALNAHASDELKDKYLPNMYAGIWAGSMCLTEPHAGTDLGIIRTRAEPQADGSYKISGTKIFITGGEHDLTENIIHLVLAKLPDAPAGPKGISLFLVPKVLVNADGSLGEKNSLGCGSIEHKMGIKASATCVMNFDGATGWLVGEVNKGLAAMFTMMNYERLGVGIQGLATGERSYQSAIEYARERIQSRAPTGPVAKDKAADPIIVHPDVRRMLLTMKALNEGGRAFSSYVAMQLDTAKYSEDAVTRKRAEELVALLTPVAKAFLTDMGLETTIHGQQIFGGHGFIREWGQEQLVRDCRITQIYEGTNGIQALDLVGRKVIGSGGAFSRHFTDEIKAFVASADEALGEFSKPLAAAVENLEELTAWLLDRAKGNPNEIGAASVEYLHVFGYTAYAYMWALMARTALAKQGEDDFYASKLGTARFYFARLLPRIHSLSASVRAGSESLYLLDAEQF", "experiment": "X-ray crystal structure, […] Å", "type": "binding"}, "FadE1": {"target": "T2, FadE1 (Pseudomonas aeruginosa, UniProt Q9I612)", "T2 construct": "gene PA0506; full-length ORF, His6 tag removed by TEV", "T2 sequence (Q9I612 entry or part of it)": "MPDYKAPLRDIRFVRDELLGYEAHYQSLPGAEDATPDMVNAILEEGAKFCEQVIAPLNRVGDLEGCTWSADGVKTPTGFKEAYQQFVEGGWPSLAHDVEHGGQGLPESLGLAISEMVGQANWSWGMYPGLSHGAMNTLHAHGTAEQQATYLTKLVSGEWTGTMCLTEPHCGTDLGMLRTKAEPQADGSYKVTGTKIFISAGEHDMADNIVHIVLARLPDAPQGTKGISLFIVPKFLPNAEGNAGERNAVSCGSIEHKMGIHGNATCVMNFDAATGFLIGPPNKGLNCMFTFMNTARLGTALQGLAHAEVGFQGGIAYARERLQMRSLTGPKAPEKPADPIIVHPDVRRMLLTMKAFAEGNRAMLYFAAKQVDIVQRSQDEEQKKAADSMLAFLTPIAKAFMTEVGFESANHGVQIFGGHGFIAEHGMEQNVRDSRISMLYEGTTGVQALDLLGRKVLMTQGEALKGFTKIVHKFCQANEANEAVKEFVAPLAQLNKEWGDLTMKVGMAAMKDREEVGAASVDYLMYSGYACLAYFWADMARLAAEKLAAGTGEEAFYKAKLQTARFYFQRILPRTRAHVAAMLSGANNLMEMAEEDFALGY", "experiment": "X-ray crystal structure, […] Å", "type": "binding"}}, "data": [{"compound": "Cc1cc2nc3c(=O)[nH]c(=O)nc-3n(C[C@H](O)[C@H](O)[C@H](O)COP(=O)(O)OP(=O)(O)OC[C@H]3O[C@@H](n4cnc5c(N)ncnc54)[C@H](O)[C@@H]3O)c2cc1C", "note": "[FAD]", "values": [{"measurement": "X-ray crystal structure, 1.94 Å", "setting": "FadE2", "value": "One FAD molecule was bound in each protomer of FadE1 and FadE2."}, {"measurement": "X-ray crystal structure, 2.08 Å", "setting": "FadE1", "value": "One FAD molecule was bound in each protomer of FadE1 and FadE2."}]}]}
